Assay results as given in patent publication US6342187B1, “Process and apparatus for dry sterilization of medical devices and materials” (priority 1987, dated 2002).
Several values for one entry are separate records, joined by “and”; a condition that tells them apart may be missing. Identical values can stand only once. Like-named read-outs stand apart in the source and are kept apart here.

What was measured:
Format in all cases: cell-based
[1] = test system: biological indicator organism; test: Example 21 designed experiments, modified AAMI EO test packs, log reduction (organism not specified); conditions: Example 21, mean over designed experiments; both precursors vaporized at 74° C.; 40 kHz, 5 kW
Description: AAMI EO Test Packs: Modified AAMI Standard EO packs were prepared in which the BI strip was removed from its glassine wrap before processing. Three strips were placed in each syringe, and the syringe was closed at its large end with the standard rubber stopper. A second syringe was prepared containing one MDT Biosign CLBI (results reported as fractional negative). The syringes were placed adjacent to one another and were wrapped in a huckabuck towel per the AAMI EO Test Pack standard. The entire assembly was placed in a Baxter ‘Tower Dual-Peel’ 7.5″×13″ paper-plastic peel pouch, which was subsequently heat sealed.
Statistical Design of Experiments: This example is based upon both Taguchi and Greco-Latin Square experimental designs in accordance with standard statistical design of experiment techniques [CSS:Statistica, StatSoft, Tulsa, Okla. ]. These experimental designs permitted variation of four parameters over four discrete levels (Greco-Latin Square) or five parameters over four discrete levels (Taguchi L′16 design). The resultant data, reported as log reduction, is analyzed to provide mean values for each of the parameters at each parameter level. Also provided are ANOVA and correlation results (for reduction vs. exposure time), which evaluate the statistical validity of the data. […]

Bstm = test: Example 22 direct comparison of sterilant precursors, AAMI standard EO test packs; conditions: Example 22: 45 min plasma, 40 kHz, 5 kW, 600 microns; 30 min preconditioning; base pressure 100 microns; Bstm 10^6 spores; peracetic acid vaporized at 60° C., hydrogen peroxide at 74° C.
Description: A direct comparison of 15% peracetic acid and 70% hydrogen peroxide sterilant precursors was made by exposing AAMI standard EO test packs for 45 minutes to plasma induced by 40 kHz excitation frequency with 5 kW RF power. […] No glassine was used on the BI strips (Bstm, 10^6 spore population, MDT lot 601).

[2] = test system: Bacillus Subtilis var Niger; conditions: for vials with total kill, of ten Attest vials: Pyrex chamber, cooled cylinder, 0.280-0.300 torr, 38-57° C., moist = H2O 300 ppm
Text: However, for each of the examples the general technique involved was one in which the material to be sterilized was placed directly in the reaction chamber, or placed within a Tyvek/polyethylene pouch which itself was sealed and placed in a wire basket within the reaction chamber.
The materials used for verification of sterilization effectiveness were “Attest” vials obtained from 3M Company, or “Spordex” bacterial test strips obtained from the American Sterilizer Company, each vial or “Spordex” envelope contained a bacterial strip having an original spore population of not less than 1×10^6 Bacillus Subtilis var Niger per strip, but more commonly in the range 2.2-4.0×10^6 spores/strip. The strips contained the permeable plastic vials were not brought into contact with the culture solution contained in any of the vials prior to sterilization. The vials were placed within the Tyvek/polyethylene bags during the plasma sterilization, alongside devices or instruments to be sterilized. The bags were always sealed during the sterilization process.
For each example the chamber was first evacuated to an initial low pressure level after the materials (in the bags or pouches) were placed within it. The chamber was thereafter filled with the appropriate gas prior to striking the discharge, and the gas continued to flow through the chamber at a controlled rate to establish a steady state sterilization pressure. The discharge was initiated by the application of RF or microwave power as indicated. The discharge was maintained for a controlled time period at the end of which the power was turned off, the chamber was first evacuated, then backfilled with air through a bacteria retentive filter, and later opened and the samples removed. The temperature within the chamber during the process was maintained at less than 70° C., and more typically around 25° C. to 65° C., as sensed by an iron-constantan, type “J”, thermocouple circuitry and monitored by an analog temperature meter.
Subsequent to the tests, the spore strips in the “Attest” vials where brought into contact with the self-contained culture solution and incubated for 72 hr, at the end of which period microorganism growth or no growth would be indicated by the resultant color of the culture solution. Alternatively, the spore strips were submitted to an independent testing laboratory which performed a total plate count on the sample strips using a procedure in which 100 milliliters of sterile deionized water were added to each strip in a sterile whirl-pak bag. The bag was then placed in a lab blender for 10 minutes. One 10 milliliter aliquot of sample, a duplicate one milliliter sample, and two consecutive 10^−1 dilutions were plated using Tryptic Soy Agar. The plates were then incubated at 30-35° C. for 72 hours. After incubation, the plates were read and recorded, and the results calculated on a Colony Forming Unit (CFU) basis.

With `CC(=O)OO` [15% peracetic acid, peracetic acid] the mean log reduction [1] was 2.8 log reduction and the mean log reduction (Bstm) was 5.57.
Work on `OO` [70% hydrogen peroxide, hydrogen peroxide] yielded a mean log reduction [1] of 3.1 log reduction and a mean log reduction (Bstm) of 5.43.
`N#N` [Dry N2, Nitrogen] was tested, and the “vials with total kill, of ten Attest vials” value (from here on “vials with total kill”) ([2]; Example 18: exposure 30 min, 100 scc/min, 0.020 W/cc) was 0 vials - total kill, the “vials with total kill” value ([2]; Example 18: exposure 45 min, 100 scc/min, 0.020 W/cc) was 0 vials - total kill and the “vials with total kill” value ([2]; Example 18: exposure 60 min, 100 scc/min, 0.020 W/cc) was 1 vial - total kill vials. For the same compound, the “vials with total kill” value ([2]; Example 18: exposure 75 min, 100 scc/min, 0.020 W/cc) was 2 vials - total kill.
`O=O` [O2, Oxygen] was tested, and the Percent Kill [2] was 99.9999%, the “Percent Kill (%)” value [2] was 77.6923% and 99.9999% and the “Resultant Microbial Count (CFUs)” value [2] was 5.8 × 10^5 CFUs and <10 CFUs. For the same compound, the Resultant microbial count [2] was < 10 CFU, the Percent Kill ([2]; Example 2: metal chamber, cooled perforated cylinder (FIG. 4), 20 scc/min, 0.30 torr, 0.050 W/cm^3, 60 min, 32° C.) was “Total kill” and the Percent Kill ([2]; Example 4: metal chamber, two uncooled perforated cylinders (FIG. 6), 20 scc/min, 0.30 torr, 0.050 W/cm^3, 60 min, 76° C.) was “Total kill”. For the same compound, the Percent Kill ([2]; Example 8: Pyrex chamber, cooled perforated cylinder (FIG. 1), 25 scc/min, 0.30 torr, 0.015 W/cm^3, 30 min, 26° C.) was “Total kill”, the Percent Kill ([2]; Example 9: Pyrex chamber, uncooled perforated cylinder (FIG. 1), 25 scc/min, 0.30 torr, 0.015 W/cm^3, 30 min, 83° C.) was “Total kill” and the “Percent Kill” value ([2]; Example 12: Pyrex chamber, two uncooled perforated cylinders, 70 scc/min, 0.275 torr, 0.016 W/cc, 45 min, 92° C., AAMI standard sterilization test pack) was “Total Kill”. For the same compound, the “Percent Kill” value ([2]; Example 13: Pyrex chamber, two cooled perforated cylinders, conditions as Example 12, 54° C., AAMI test pack) was “Total Kill”, the “Percent Kill” value ([2]; Example 14: Pyrex chamber, uncooled perforated cylinder, 70 scc/min, 0.275 torr, 0.014 W/cc, 30 min, 85° C.) was “Total Kill” and the “Percent Kill” value ([2]; Example 15: Pyrex chamber, cooled perforated cylinder (FIG. 1), conditions as Example 14, 47° C.) was “Total Kill”. The “Percent Kill” value ([2]; Example 16: Pyrex chamber, cooled perforated cylinder (FIG. 1), conditions as Example 14, exposure 2¼ hr, 51° C.) was “Total Kill” and the “Percent Kill” value ([2]; Example 19: spore strip in middle of 24-inch PVC or silicone rubber tubing, in sealed pouch, 100 scc/min, 0.280 torr, 0.020 W/cc, 70-105 min, 50° C.) was “Total Kill”.
